Source: PMC10178848, “Modulating fast skeletal muscle contraction protects skeletal muscle in animal models of Duchenne muscular dystrophy” (The Journal of Clinical Investigation, 2023)

System: mdx mouse EDL muscle
Test: Phosphoprotein array analysis (Cell Signaling Phospho Antibody Array)
Conditions: phospho/total, T vs C
Procedure: mdx mouse EDL muscle was prepared for ex vivo analysis as described (n = 5). Muscles were incubated for 1 hour with DMSO or EDG-5506 (5 μM) and then flash frozen in liquid nitrogen. Tissue preparation and analysis were performed as recommended by the manufacturer (Cell Signaling Phospho Antibody Array, Full Moon Biosystems).

With `O=c1ccc(-c2cnc(OCC(F)(F)F)nc2)nn1Cc1cncc(F)c1` [EDG-5506] the “Ratio (T/C): Integrin beta-3 (Phospho-Tyr773) to total Integrin beta-3 (Ab-773)” value was 0.8566, the “Ratio (T/C): Interferon-gamma receptor alpha (Phospho-Tyr457) to total Interferon-alpha/beta receptor alpha chain (Ab-466)” value was 0.992 and the “Ratio (T/C): JAK2 (Phospho-Tyr221) to total JAK2 (Ab-1007)” value was 0.5849. The “Ratio (T/C): JunB (Phospho-Ser259) to total JunB (Ab-259)” value was 0.7783, the “Ratio (T/C): LKB1 (Phospho-Thr189) to total LKB1 (Ab-334)” value was 1.099 and the “Ratio (T/C): LYN (Phospho-Tyr507) to total LYN (Ab-507)” value was 1.819. For the same compound, the “Ratio (T/C): Lamin A/C (Phospho-Ser392) to total Lamin A/C (Ab-392)” value was 0.4365, the “Ratio (T/C): MDM2 (Phospho-Ser166) to total MDM2 (Ab-166)” value was 0.7195 and the “Ratio (T/C): MEK1 (Phospho-Ser217) to total MEK1 (Ab-291)” value was 0.8093. The “Ratio (T/C): MEK1 (Phospho-Ser221) to total MEK1 (Ab-291)” value was 1.481, the “Ratio (T/C): MITF (Phospho-Ser73) to total MITF (Ab-73)” value was 0.8065 and the “Ratio (T/C): MSK1 (Phospho-Ser376) to total MSK1 (Ab-360)” value was 1.21. For the same compound, the “Ratio (T/C): Myc (Phospho-Ser62) to total Myc (Ab-58)” value was 0.9423, the “Ratio (T/C): NFkB-p65 (Phospho-Ser311) to total NFkB-p65 (Ab-529)” value was 0.8783 and the “Ratio (T/C): NFkB-p65 (Phospho-Ser529) to total NFkB-p65 (Ab-529)” value was 0.8263. For the same compound, the “Ratio (T/C): NFkB-p100/p52 (Phospho-Ser865) to total NFkB-p100/p52 (Ab-865)” value was 1.159, the “Ratio (T/C): NFkB-p105/p50 (Phospho-Ser337) to total NFkB-p105/p50 (Ab-927)” value was 1.219 and the “Ratio (T/C): P38 MAPK (Phospho-Thr180/Tyr182) to total P38 MAPK (Ab-182)” value was 0.2071. The “Ratio (T/C): P70S6K (Phospho-Ser424) to total P70S6K (Ab-229)” value was 0.7495, the “Ratio (T/C): P70S6K (Phospho-Thr421) to total P70S6K (Ab-229)” value was 1.055 and the “Ratio (T/C): P73 (Phospho-Tyr99) to total P73 (Ab-99)” value was 1.0107. The “Ratio (T/C): P90RSK (Phospho-Thr359/Ser363) to total P90RSK (Ab-359/363)” value was 0.8912, the “Ratio (T/C): PDK1 (Phospho-Ser241) to total PDK1 (Ab-241)” value was 0.9138 and the “Ratio (T/C): PLCG1 (Phospho-Tyr783) to total PLCG1 (Ab-783)” value was 1.902. The “Ratio (T/C): PLK1 (Phospho-Thr210) to total PLK1 (Ab-210)” value was 0.3997, the “Ratio (T/C): PP1 alpha (Phospho-Thr320) to total PP1 alpha (Ab-320)” value was 0.867 and the “Ratio (T/C): PP2A-alpha (Phospho-Tyr307) to total PP2A-alpha (Ab-307)” value was 0.7589. For the same compound, the “Ratio (T/C): PPAR-gamma (Phospho-Ser112) to total PPAR-gamma (Ab-112)” value was 0.8451, the “Ratio (T/C): PTEN (Phospho-Ser380/Thr382/Thr383) to total PTEN (Ab-380)” value was 0.6925 and the “Ratio (T/C): RSK1/2/3/4 (Phospho-Ser221/227/218/232) to total RSK1/2/3/4 (Ab-221/227/218/232)” value was 1.05. For the same compound, the “Ratio (T/C): Raf1 (Phospho-Ser259) to total Raf1 (Ab-43)” value was 0.9472, the “Ratio (T/C): Rb (Phospho-Ser608) to total Rb (Ab-807)” value was 0.5194 and the “Ratio (T/C): Rb (Phospho-Ser807) to total Rb (Ab-807)” value was 0.4329. The “Ratio (T/C): RelB (Phospho-Ser552) to total RelB (Ab-552)” value was 0.7768, the “Ratio (T/C): SHP-2 (Phospho-Tyr542) to total SHP-2 (Ab-542)” value was 0.9242 and the “Ratio (T/C): SRF (Phospho-Ser99) to total SRF (Ab-99)” value was 0.6381. The “Ratio (T/C): STAT2 (Phospho-Tyr690) to total STAT2 (Ab-690)” value was 1.1086, the “Ratio (T/C): STAT3 (Phospho-Tyr705) to total STAT3 (Ab-705)” value was 0.8721 and the “Ratio (T/C): STAT5B (Phospho-Ser731) to total STAT5B (Ab-731)” value was 1.008. For the same compound, the “Ratio (T/C): STAT6 (Phospho-Thr645) to total STAT6 (Ab-645)” value was 0.7953, the “Ratio (T/C): SYK (Phospho-Tyr348) to total SYK (Ab-525)” value was 0.9191 and the “Ratio (T/C): Shc (Phospho-Tyr349) to total Shc (Ab-349)” value was 1.943. For the same compound, the “Ratio (T/C): Smad1 (Phospho-Ser187) to total Smad1 (Ab-465)” value was 1.9576, the “Ratio (T/C): Smad2 (Phospho-Ser467) to total Smad2 (Ab-255)” value was 0.3873 and the “Ratio (T/C): Smad2/3 (Phospho-Thr8) to total Smad2 (Ab-255)” value was 0.779. The “Ratio (T/C): Smad3 (Phospho-Ser213) to total Smad3 (Ab-425)” value was 2.4313, the “Ratio (T/C): Src (Phospho-Tyr418) to total Src (Ab-418)” value was 0.4536 and the “Ratio (T/C): Synuclein alpha (Phospho-Tyr136) to total Synuclein alpha (Ab-125)” value was 1.009. The “Ratio (T/C): Tau (Phospho-Ser235) to total Tau (Ab-235)” value was 0.4913, the “Ratio (T/C): Tau (Phospho-Ser396) to total Tau (Ab-235)” value was 0.4515 and the “Ratio (T/C): Trk B (Phospho-Tyr515) to total Trk B (Ab-515)” value was 0.8791. The “Ratio (T/C): VEGFR2 (Phospho-Tyr1175) to total VEGFR2 (Ab-1214)” value was 0.7882, the “Ratio (T/C): VEGFR2 (Phospho-Tyr1214) to total VEGFR2 (Ab-1214)” value was 1.1348 and the “Ratio (T/C): Zap-70 (Phospho-Tyr319) to total Zap-70 (Ab-319)” value was 0.9346. The “Ratio (T/C): c-Jun (Phospho-Ser73) to total c-Jun (Ab-243)” value was 0.8772, the “Ratio (T/C): eEF2K (Phospho-Ser366) to total eEF2K (Ab-366)” value was 0.5517 and the “Ratio (T/C): eIF2A (Phospho-Ser51) to total eIF2A (Ab-51)” value was 1.082. The “Ratio (T/C): eNOS (Phospho-Ser615) to total eNOS (Ab-1179)” value was 1.215, the “Ratio (T/C): mTOR (Phospho-Ser2481) to total mTOR (Ab-2481)” value was 1.125 and the “Ratio (T/C): p44/42 MAP Kinase (Phospho-Tyr204) to total p44/42 MAP Kinase (Ab-202)” value was 0.9379. The “Ratio (T/C): p53 (Phospho-Ser9) to total p53 (Ab-315)” value was 0.8012, the “Ratio (T/C): p53 (Phospho-Ser15) to total p53 (Ab-315)” value was 0.1195 and the “Ratio (T/C): p53 (Phospho-Ser315) to total p53 (Ab-315)” value was 0.641.
